According to patent US4314061A, “Certain 3,6-bis-(heteroaminoalkoxy) acridines” (priority 1980, dated 1982):

Key:
[1] = test system: Rauscher Virus-Induced Leukemia; experiment: Inhibition of splenomegaly in mice with Rauscher virus-induced leukemia; type: in vivo, Balb/c mice; settings: for reduction in splenomegaly: general statement, no dose, relative to placebo treated RLV-infected mice
B16 melanoma = experiment: Distribution of metastatic foci in lungs of mice inoculated subcutaneously with B16 melanoma; type: in vivo, BDF1 mice; settings: for No. of mice with 0 lung foci/mouse / No. of mice with 1-5 lung foci/mouse / No. of mice with 6-10 lung foci/mouse / No. of mice with 11-15 lung foci/mouse / No. of mice with >15 lung foci/mouse: day 25
Method: BDF1 male mice inoculated subcutaneously with 0.25 ml of a 10% tumor
homogenate on day 0. Drugs administered intraperitoneally days 1,5,9 and
13; mice sacrificed on day 25, 10 mice per group. Distribution of […]

In the case of `CCN(CC)CCOc1ccc2cc3ccc(OCCN(CC)CC)c([N+](=O)[O-])c3nc2c1[N+](=O)[O-]` [3,6-bis(2-diethylaminoethoxy)-4,5-dinitroacridine], the “% Reduction in splenomegaly” value ([1]; 100 mg/kg) is reported as 108%.
With `CN(C)CCOc1ccc2cc3ccc(OCCN(C)C)cc3nc2c1.Cl.Cl.Cl` [3,6-bis(2-dimethylaminoethoxy)acridine trihydrochloride] the “No. of mice with 0 lung foci/mouse” value (B16 melanoma; 6.5 mg/kg i.p.) was 0, the “No. of mice with 1-5 lung foci/mouse” value (B16 melanoma; 6.5 mg/kg i.p.) was 3 and the “No. of mice with 6-10 lung foci/mouse” value (B16 melanoma; 6.5 mg/kg i.p.) was 3. For the same molecule, the “No. of mice with 11-15 lung foci/mouse” value (B16 melanoma; 6.5 mg/kg i.p.) was 1, the “No. of mice with >15 lung foci/mouse” value (B16 melanoma; 6.5 mg/kg i.p.) was 1 and the “No. of mice with 0 lung foci/mouse” value (B16 melanoma; 12.5 mg/kg i.p.) was 1. The “No. of mice with 1-5 lung foci/mouse” value (B16 melanoma; 12.5 mg/kg i.p.) was 5, the “No. of mice with 6-10 lung foci/mouse” value (B16 melanoma; 12.5 mg/kg i.p.) was 1 and the “No. of mice with 11-15 lung foci/mouse” value (B16 melanoma; 12.5 mg/kg i.p.) was 1. For the same molecule, the “No. of mice with >15 lung foci/mouse” value (B16 melanoma; 12.5 mg/kg i.p.) was 1, the “No. of mice with 0 lung foci/mouse” value (B16 melanoma; 25 mg/kg i.p.) was 2 and the “No. of mice with 1-5 lung foci/mouse” value (B16 melanoma; 25 mg/kg i.p.) was 4. The “No. of mice with 6-10 lung foci/mouse” value (B16 melanoma; 25 mg/kg i.p.) was 2, the “No. of mice with 11-15 lung foci/mouse” value (B16 melanoma; 25 mg/kg i.p.) was 1 and the “No. of mice with >15 lung foci/mouse” value (B16 melanoma; 25 mg/kg i.p.) was 0. For the same molecule, the “No. of mice with 0 lung foci/mouse” value (B16 melanoma; 50 mg/kg i.p.) was 1, the “No. of mice with 1-5 lung foci/mouse” value (B16 melanoma; 50 mg/kg i.p.) was 1 and the “No. of mice with 6-10 lung foci/mouse” value (B16 melanoma; 50 mg/kg i.p.) was 4. For the same molecule, the “No. of mice with 11-15 lung foci/mouse” value (B16 melanoma; 50 mg/kg i.p.) was 0, the “No. of mice with >15 lung foci/mouse” value (B16 melanoma; 50 mg/kg i.p.) was 0 and the “No. of mice with 0 lung foci/mouse” value (B16 melanoma; 100 mg/kg i.p.) was 3. The “No. of mice with 1-5 lung foci/mouse” value (B16 melanoma; 100 mg/kg i.p.) was 7, the “No. of mice with 6-10 lung foci/mouse” value (B16 melanoma; 100 mg/kg i.p.) was 0 and the “No. of mice with 11-15 lung foci/mouse” value (B16 melanoma; 100 mg/kg i.p.) was 0. The “No. of mice with >15 lung foci/mouse” value (B16 melanoma; 100 mg/kg i.p.) was 0 and the “Mortality (in place of lung foci count)” value (B16 melanoma; 200 mg/kg i.p. days 1,5,9,13) was “All mice dead”.
With `O=c1[nH]cc(F)c(=O)[nH]1` [5-fluorouracil, reference compound] the “% Reduction in splenomegaly” value ([1]; 50 mg/kg) was 115%, the reduction in splenomegaly [1] was no less than 50% and the “No. of mice with 0 lung foci/mouse” value (B16 melanoma; 20 mg/kg i.p.) was 1. The “No. of mice with 1-5 lung foci/mouse” value (B16 melanoma; 20 mg/kg i.p.) was 2, the “No. of mice with 6-10 lung foci/mouse” value (B16 melanoma; 20 mg/kg i.p.) was 1 and the “No. of mice with 11-15 lung foci/mouse” value (B16 melanoma; 20 mg/kg i.p.) was 2. For the same molecule, the “No. of mice with >15 lung foci/mouse” value (B16 melanoma; 20 mg/kg i.p.) was 1, the “No. of mice with 0 lung foci/mouse” value (B16 melanoma; 25 mg/kg i.p.) was 3 and the “No. of mice with 1-5 lung foci/mouse” value (B16 melanoma; 25 mg/kg i.p.) was 3. For the same molecule, the “No. of mice with 6-10 lung foci/mouse” value (B16 melanoma; 25 mg/kg i.p.) was 1, the “No. of mice with 11-15 lung foci/mouse” value (B16 melanoma; 25 mg/kg i.p.) was 1 and the “No. of mice with >15 lung foci/mouse” value (B16 melanoma; 25 mg/kg i.p.) was 1. The “No. of mice with 0 lung foci/mouse” value (B16 melanoma; 30 mg/kg i.p.) was 3, the “No. of mice with 1-5 lung foci/mouse” value (B16 melanoma; 30 mg/kg i.p.) was 3 and the “No. of mice with 6-10 lung foci/mouse” value (B16 melanoma; 30 mg/kg i.p.) was 3. The “No. of mice with 11-15 lung foci/mouse” value (B16 melanoma; 30 mg/kg i.p.) was 0, the “No. of mice with >15 lung foci/mouse” value (B16 melanoma; 30 mg/kg i.p.) was 0 and the “No. of mice with 0 lung foci/mouse” value (B16 melanoma; 40 mg/kg i.p.) was 2. For the same molecule, the “No. of mice with 1-5 lung foci/mouse” value (B16 melanoma; 40 mg/kg i.p.) was 5, the “No. of mice with 6-10 lung foci/mouse” value (B16 melanoma; 40 mg/kg i.p.) was 4 and the “No. of mice with 11-15 lung foci/mouse” value (B16 melanoma; 40 mg/kg i.p.) was 0. For the same molecule, the “No. of mice with >15 lung foci/mouse” value (B16 melanoma; 40 mg/kg i.p.) was 0, the “No. of mice with 0 lung foci/mouse” value (B16 melanoma; 50 mg/kg i.p.) was 2 and the “No. of mice with 1-5 lung foci/mouse” value (B16 melanoma; 50 mg/kg i.p.) was 4. The “No. of mice with 6-10 lung foci/mouse” value (B16 melanoma; 50 mg/kg i.p.) was 3, the “No. of mice with 11-15 lung foci/mouse” value (B16 melanoma; 50 mg/kg i.p.) was 0 and the “No. of mice with >15 lung foci/mouse” value (B16 melanoma; 50 mg/kg i.p.) was 0.
For `Sc1ncnc2nc[nH]c12` [6-Mercaptopurine, 6-mercaptopurine, reference compound], the “% Reduction in splenomegaly” value ([1]; 100 mg/kg) was 113% and the reduction in splenomegaly [1] was no less than 50%.
`CN(Cc1cnc2nc(N)nc(N)c2n1)c1ccc(C(=O)N[C@@H](CCC(=O)O)C(=O)O)cc1` [Methotrexate, reference compound] was tested, and the “% Reduction in splenomegaly” value ([1]; 4 mg/kg) was 59% and the reduction in splenomegaly [1] was no less than 50%.
